Columns and labels:
Format in all cases: in vivo
[1] = test system: Aedes aegypti; assay: whole plant or invertebrate; conditions: 800 ppm; larvae; 2 days
Outline: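 Visual larval mortality was assessed 2 days after treatment (28±1 °C, 80±5% RH). Formulations of compounds or mixtures (75% water/25% DMSO) were applied by micro-atomizer onto diet of 5-15 newly hatched larvae per water-filled well, two replicates per concentration.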

[2] = test system: Plutella xylostella; assay: Action on Diamond Back Moth (Plutella xylostella), cabbage leaf dip, 3rd instar larvae; conditions: 300 ppm; 3rd instar larvae; 72 hours after treatment
Outline: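 Cabbage leaves dipped in compound solution (1:1 water:acetone, 0.01% v/v surfactant), air-dried, then infested with ten 3rd-instar larvae in petri dishes on moist filter paper. Mortality scored at 72 h after treatment; feeding damage rated on a 0–100% scale.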

[3] = test system: Heliothis virescens; assay: Action on Tobacco Budworm (Heliothis virescens); conditions: 800 ppm; egg and larval mortality; 5 days
Outline: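 Eggs (15-25 per well) on diet were held 5 days at about 28±1 °C, 80±5% RH, then egg and larval mortality was scored by eye. Beforehand the diet had been sprayed with compound dilutions formulated in water/DMSO 75:25 v/v, in two replicates.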

[4] = test system: Anthonomus grandis; assay: Action on Boll Weevil (Anthonomus grandis); conditions: 800 ppm; egg and larval mortality; 5 days
Outline: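 Diet in 96-well plates, seeded with 5-10 A. grandis eggs, received a spray of formulated compound (25% DMSO in water) at a range of concentrations, duplicated. Mortality of eggs and larvae was judged by eye after 5 days at about 25±1 °C, 75±5% relative humidity.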

[5] = test system: Spodoptera eridania; assay: Action on Southern Armyworm (Spodoptera eridania), 2nd Instar Larvae; conditions: 300 ppm; 2nd instar larvae; 4 days after treatment
Outline: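 2nd-instar Spodoptera eridania larvae (about 10–11 per pot) confined on sprayed, dried Lima bean plants (1st true leaf stage) in sealed bags. Spray solutions: acetone/water 1:1 plus 0.01% surfactant. Held 4 days near 25 °C, 20–40% RH; assessed for mortality and feeding reduction against untreated controls.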

[6] = test system: Dichromothrips corbetti; assay: Action on Orchid Thrips (Dichromothrips corbetti); conditions: 300 ppm; adults; 72 hours after treatment
Experimental: Example B2: Action on Orchid Thrips (Dichromothrips corbetti)
Dichromothrips corbetti adults used for bioassay were obtained from a colony maintained continuously under laboratory conditions. For testing purposes, the test compound is diluted in a 1:1 mixture of acetone: water (vol: vol), plus Kinetic® HV at a rate of 0.01% v/v.
Thrips potency of each compound was evaluated by using a floral-immersion technique. All petals of individual, intact orchid flowers were dipped into treatment solution and allowed to dryin Petri dishes. Treated petals were placed into individual re-sealable plastic along with about 20 adult thrips. All test arenas were held under continuous light and a temperature of about 28 °C for duration of the assay. After 3 days, the numbers of live thrips were counted on each petal. The percent mortality was recorded 72 hours after treatment.

[7] = test system: Bemisia argentifolii; assay: Action on Silverleaf Whitefly (Bemisia argentifolii) (Adults); conditions: 300 ppm, 3 days after treatment
Experimental: Example B4: Action on Silverleaf Whitefly (Bemisia argentifolii) (Adults)
The active compounds were formulated by a Tecan liquid handler in 100% cyclohexanone as a 10,000 ppm solution supplied in tubes. The 10,000 ppm solution was serially diluted in 100% cyclohexanone to make interim solutions. These served as stock solutions for which final dilutions were made by the Tecan in 50% acetone: 50% water (v/v) into 5 or 10 ml glass vials. A nonionic surfactant (Kinetic®) was included in the solution at a volume of 0.01% (v/v). The vials were then inserted into an automated electrostatic sprayer equipped with an atomizing nozzle for application to plants/insects.
Cotton plants at the cotyledon stage (one plant per pot) were sprayed by an automated electrostatic plant sprayer equipped with an atomizing spray nozzle. The plants were dried in the sprayer fume hood and then removed from the sprayer. Each pot was placed into a plastic cup and about 10 to 12 whitefly adults (approximately 3-5 days old) were introduced. The insects were collected using an aspirator and a nontoxic Tygon® tubing connected to a barrier pipette tip. The tip, containing the collected insects, was then gently inserted into the soil containing the treated plant, allowing insects to crawl out of the tip to reach the foliage for feeding. […] Mortality was assessed 3 days after treatment, compared to untreated control plants.

[8] = test system: Plutella xylostella; assay: Action on Diamond Back Moth (Plutella xylostella), microtiter plates, insect diet, eggs; conditions: 800 ppm; egg and larval mortality; 5 days
Outline: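 Diet in 96-well plates with 15–25 P. xylostella eggs, sprayed with compound formulated in 75% water/25% DMSO at several concentrations, two replicates; mixtures combined in equal volumes. Incubated 5 days at 28±1 °C, 80±5% RH, then egg and larval mortality scored visually.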

| Compound | mortality in comparison with untreated controls [1] | mortality in comparison with untreated controls [2] | mortality in comparison with untreated controls [3] | mortality in comparison with untreated controls [4] | mortality in comparison with untreated controls [5] | mortality in comparison with untreated controls [6] | mortality in comparison with untreated controls [7] | mortality in comparison with untreated controls [8] |
| --- | --- | --- | --- | --- | --- | --- | --- | --- |
| Cc1ccc(C(C)C)c(N2C(=O)CS/C2=N\C(=O)Nc2ccc(-n3cc(NC(=O)c4ccc(OC(F)(F)F)cc4)c(C)n3)cc2F)c1 [Example C-6] | at least 50% | at least 75% | at least 75% | at least 75% | at least 75% | at least 75% | at least 75% | – |
| Cc1ccc(C(C)C)c(N2C(=O)CSC2=NC(=O)Nc2ccc(-n3nc(C)c(N(CC4CC4)C(=O)c4ccc(OC(F)(F)F)cc4)c3C)cc2Cl)c1 [Example C-46] | at least 50% | – | at least 75% | at least 75% | at least 75% | at least 75% | – | at least 75% |
| Cc1ccc(C(C)C)c(N2C(=O)CS/C2=N\C(=O)Nc2cc(F)c(-n3nc(C)c(NC(=O)c4ccc(OC(F)(F)F)cc4)c3C)cc2Cl)c1 [Example C-104] | at least 50% | – | at least 75% | at least 75% | at least 75% | at least 75% | – | at least 75% |
| Cc1ccc(C(C)C)c(N2C(=O)CSC2=NC(=O)Nc2ccc(-n3nc(C)c(NC(=O)c4ccc(OC(F)(F)F)cc4)c3C)c(Cl)c2Cl)c1 [Example C-123] | at least 50% | – | at least 75% | at least 75% | at least 75% | at least 75% | – | at least 75% |
